Laboratory results reported in US20250235486A1, “Method of Producing Insulin-Producing Cells” (Monash University, priority 2022, published 2025).

What was measured:
[1] = test system: human exocrine (acinar and ductal) cells; assay: qRT-PCR gene expression in human exocrine (acinar and ductal) cells from a non-diabetic donor; assay type: cell-based; settings: 48 hours: GSK126 10 μM, CPI-1205 5 μM, ursolic acid 5 μM, GSK343 5 μM, EPZ-6438 5 μM
Protocol: (§1) Exocrine cells from a non-diabetic human and a marmoset were cultured and assayed in Miami/CMRL medium. The human exocrine cells were sourced from the Islet Transplant Unit of St Vincent's Institute for Medical Research. The marmoset exocrine cells were sourced from the Australian Regenerative Medicine Institute (ARMI), Monash University. Miami media is based on CMRL 1066 media (Connaught Medical Research Lab) supplemented with: Insulin, Transferrin & Selenium (ITS), human serum, Vitamin E, sodium pyruvate, zinc and HEPES. Pharmacological inhibition of EZH2 and gene expression analysis were performed as described in Example 1.

[2] = test system: H3K27me3 or H3K9/14ac content at the promoters of INS-IGF2, NGN3 and PDX1 in human pancreatic ductal epithelial cells; assay: Quantitative PCR chromatin immunoprecipitation (q-PCR ChIP) after 2- and 7-day stimulation; assay type: cell-based; settings: 7 days (FIG. 12c)
Protocol: Approximately 5×10^6 cells were fixed in 1% formaldehyde for 10 minutes, with a further 10-minute incubation in 0.125M glycine to quench the cross-linking reaction. The fixed cell pellet was lysed following resuspension and homogenization in sodium dodecyl (lauryl) sulphate (SOS) lysis buffer (1% SOS, 10 mM EDTA, 50 mM Tris-HCl pH 8.1) with a protease inhibitor cocktail (Roche Diagnostics GmBH, Mannheim, Germany) included. Samples were incubated on ice for 5 minutes following which sonication was performed to shear chromatin between 200-600 bp. Sonicated chromatin was resuspended in ChIP Dilution Buffer (0.01% SOS, 1.1% Triton X-100, 1.2 mM EDTA, 16.7 mM Tris-HCl pH 8.0 and 167 mM NaCl). 20 μl of DynabeadsR Protein A (Invitrogen, Carlsbad, CA, USA) was added to each sample and pre-cleared. Overnight incubation at 4° C. with H3K27me3 or H3K9/14ac antibody was used for immunoprecipitation of chromatin, as previously described. Immunoprecipitates were collected by magnetic isolation and washed sequentially with low salt and high salt buffers. Immunoprecipitated DNA was then eluted from solution with 0.1 M NaHCO3 containing 1% SIDS. Protein-DNA cross-links were reversed by incubation of samples in Proteinase K (Sigma, St. Louis, MO, USA) for 2 hours at 62° C. DNA was purified using a Qiagen MinElute column (Qiagen Inc., Valencia, CA, USA). H3K27me3 or H3K9/14ac content at the promoters of the INS-IGF2, NGN3 and PDX1 genes were assessed by qPCR using primers designed from the integrative ENCODE resource.

[3] = molecular target: T1, EZH2 (Homo sapiens, UniProt Q15910); settings: assay of methylation activity as described in the cited paper for each compound; cited from earlier work
T1 construct: Flag

[4] = test system: Human pancreatic ductal epithelial cells; assay: qRT-PCR after 2- and 7-day EZH2 inhibitor stimulation of human pancreatic ductal epithelial cells; assay type: cell-based; settings: GSK-126 10 μM, Triptolide 20 nM
Protocol: Human pancreatic ductal epithelial cells were purchased from AddexBio and cultured according to the recommended protocols. Cells were cultured in complete Keratinocyte Serum-Free Media (supplemented with human recombinant EGF, Bovine Pituitary Extract and Antibiotic-Antimycotic [Gibco]. All cell cultures were grown and maintained in a 37° C., 5% C02 environment using a tissue culture incubator. Once cells reached 70-80% confluency, passaging was performed using 0.05% Trypsin EDTA (Sigma). […] Vehicle control was DMSO. Cells were treated over 2 main timepoints, with harvests occurring following 2, and 7 days. For the 2-day time point, cells were seeded and left to adhere in plates for 24 hours. Treatment was initiated with the first dose made up in complete K-SFM. The second dose was delivered 24 hours later following a media change. For the longer period of 7 days, cells were initially seeded in 10 cm plates, with doses delivered on alternate days following the initial period of 24 hours. […] Ct values of experimental genes were normalized to housekeeping gene [MUT]. Fold change of mRNA abundance was calculated by normalizing drug treated values to vehicular controls. […] RNA was isolated using the RNeasy Kit according to the manufacturer's directions. Following measurement of RNA concentration using a QIAxpert System, 1 μg of RNA was used for cDNA synthesis by a high-capacity cDNA Reverse Transcription Kit (Applied Biosystems). The resulting cDNA reaction mix was diluted 1:6 to make up the final template cDNA used subsequently. […] Ct values of experimental genes were normalized to housekeeping gene [MUT]. Fold change of mRNA abundance was calculated by normalizing drug treated values to vehicular controls.

[5] = test system: Human pancreatic ductal epithelial cells; assay: Glucose stimulated insulin secretion assay (ELISA); assay type: cell-based
Protocol: 5×10^5 cells were seeded in 12-well plates and allowed to adhere for 24 hours. […] Next, cells were cultured in 28 mM (High) glucose Krebs Buffer solution and incubated for 1 hour to obtain the glucose stimulated insulin secretion. Supernatant was collected and Ultrasensitive Insulin ELISA (Mercodia) was used to determine the concentration of insulin according to manufacturer's instructions. Fold change of insulin secreted by cells were calculated by adjusting to cells stimulated with EZH2 inhibitors for insulin concentrations compared to control.

[6] = test system: Human immortalised ductal cell line; assay: qRT-PCR gene expression in human immortalised ductal cell line; assay type: cell-based; settings: ursolic acid 1, 2.5 or 5 μM; GSK126 5, 10 or 20 μM
Protocol: Human immortalised ductal cell line (Catalog #: T0018001, Addexbio) was cultured and assayed in Keratinocyte SFM (serum-free medium) (Catalog number 17005042, ThermoFisher Scientific, USA). Pharmacological inhibition of EZH2 and gene expression analysis were performed as described in Example 1.

[7] = test system: marmoset exocrine (acinar and ductal) cells; assay: qRT-PCR gene expression in marmoset exocrine (acinar and ductal) cells; assay type: cell-based; settings: 48 hours: GSK126 10 μM, ursolic acid 5 μM
Protocol: as §1

T1 sequence (Q15910 whole entry): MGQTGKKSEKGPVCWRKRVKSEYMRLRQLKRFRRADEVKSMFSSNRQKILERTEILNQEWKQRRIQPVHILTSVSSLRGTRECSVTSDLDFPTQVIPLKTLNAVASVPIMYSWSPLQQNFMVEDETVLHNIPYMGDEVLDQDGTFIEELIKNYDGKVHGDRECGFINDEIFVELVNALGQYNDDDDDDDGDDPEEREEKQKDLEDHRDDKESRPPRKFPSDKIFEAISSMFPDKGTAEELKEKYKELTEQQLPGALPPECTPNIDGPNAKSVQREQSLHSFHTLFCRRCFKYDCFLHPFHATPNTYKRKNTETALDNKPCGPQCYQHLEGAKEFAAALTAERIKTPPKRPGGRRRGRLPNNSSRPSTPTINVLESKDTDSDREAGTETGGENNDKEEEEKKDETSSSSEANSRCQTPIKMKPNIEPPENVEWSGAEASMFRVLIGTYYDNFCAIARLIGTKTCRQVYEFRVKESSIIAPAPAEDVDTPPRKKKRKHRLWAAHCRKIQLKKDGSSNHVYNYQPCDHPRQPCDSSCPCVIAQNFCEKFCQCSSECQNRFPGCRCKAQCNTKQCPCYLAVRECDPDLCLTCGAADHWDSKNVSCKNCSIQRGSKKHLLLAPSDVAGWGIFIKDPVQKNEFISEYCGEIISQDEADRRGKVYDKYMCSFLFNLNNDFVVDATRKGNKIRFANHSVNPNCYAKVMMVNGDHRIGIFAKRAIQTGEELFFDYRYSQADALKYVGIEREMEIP
T1 sequence (O75530 whole entry partner): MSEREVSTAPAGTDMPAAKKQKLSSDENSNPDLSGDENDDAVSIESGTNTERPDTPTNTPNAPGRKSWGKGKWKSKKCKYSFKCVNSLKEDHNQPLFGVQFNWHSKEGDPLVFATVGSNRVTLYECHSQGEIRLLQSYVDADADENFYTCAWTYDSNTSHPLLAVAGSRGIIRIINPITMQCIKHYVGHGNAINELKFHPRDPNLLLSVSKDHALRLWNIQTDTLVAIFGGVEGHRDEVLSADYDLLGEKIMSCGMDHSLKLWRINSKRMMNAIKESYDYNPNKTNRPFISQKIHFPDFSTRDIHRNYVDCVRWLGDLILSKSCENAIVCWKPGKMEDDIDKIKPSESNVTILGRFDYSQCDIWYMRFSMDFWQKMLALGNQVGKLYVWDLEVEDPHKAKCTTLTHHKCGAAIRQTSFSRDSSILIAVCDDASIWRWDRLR
T1 sequence (Q15022 whole entry partner): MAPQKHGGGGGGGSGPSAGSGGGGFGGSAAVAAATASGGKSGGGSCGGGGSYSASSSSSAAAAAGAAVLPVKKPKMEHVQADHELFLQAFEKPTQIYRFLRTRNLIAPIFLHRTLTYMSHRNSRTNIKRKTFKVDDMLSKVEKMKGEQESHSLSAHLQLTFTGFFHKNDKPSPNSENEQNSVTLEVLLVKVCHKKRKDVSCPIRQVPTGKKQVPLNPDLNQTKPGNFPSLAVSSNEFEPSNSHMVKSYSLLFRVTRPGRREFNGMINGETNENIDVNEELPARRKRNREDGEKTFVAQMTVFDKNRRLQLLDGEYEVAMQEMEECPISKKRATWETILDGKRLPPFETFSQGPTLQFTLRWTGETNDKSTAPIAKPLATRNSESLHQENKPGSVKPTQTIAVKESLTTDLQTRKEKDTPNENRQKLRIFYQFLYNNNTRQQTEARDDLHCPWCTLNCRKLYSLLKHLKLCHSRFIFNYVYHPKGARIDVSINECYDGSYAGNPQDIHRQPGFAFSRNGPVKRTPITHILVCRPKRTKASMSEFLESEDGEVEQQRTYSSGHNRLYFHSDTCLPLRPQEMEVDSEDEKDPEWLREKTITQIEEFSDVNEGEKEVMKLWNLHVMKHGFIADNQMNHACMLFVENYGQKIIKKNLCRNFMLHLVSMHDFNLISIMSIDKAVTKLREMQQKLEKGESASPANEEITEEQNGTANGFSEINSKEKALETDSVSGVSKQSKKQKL
T1 sequence (Q6ZN18 whole entry partner): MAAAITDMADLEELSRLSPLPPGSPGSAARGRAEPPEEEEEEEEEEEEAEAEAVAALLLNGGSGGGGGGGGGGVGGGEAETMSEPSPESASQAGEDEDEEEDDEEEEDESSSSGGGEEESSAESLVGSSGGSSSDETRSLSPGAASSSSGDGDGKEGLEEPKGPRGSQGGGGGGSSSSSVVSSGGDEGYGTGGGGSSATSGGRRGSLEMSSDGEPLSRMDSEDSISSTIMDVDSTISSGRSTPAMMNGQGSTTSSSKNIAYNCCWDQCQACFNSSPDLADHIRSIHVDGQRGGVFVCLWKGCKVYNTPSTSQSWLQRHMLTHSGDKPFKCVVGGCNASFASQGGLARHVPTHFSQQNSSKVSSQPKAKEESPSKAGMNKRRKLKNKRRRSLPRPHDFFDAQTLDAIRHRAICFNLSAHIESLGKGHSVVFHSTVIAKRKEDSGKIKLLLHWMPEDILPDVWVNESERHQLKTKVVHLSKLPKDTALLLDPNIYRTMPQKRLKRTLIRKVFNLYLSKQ
T1 sequence (Q09028 whole entry partner): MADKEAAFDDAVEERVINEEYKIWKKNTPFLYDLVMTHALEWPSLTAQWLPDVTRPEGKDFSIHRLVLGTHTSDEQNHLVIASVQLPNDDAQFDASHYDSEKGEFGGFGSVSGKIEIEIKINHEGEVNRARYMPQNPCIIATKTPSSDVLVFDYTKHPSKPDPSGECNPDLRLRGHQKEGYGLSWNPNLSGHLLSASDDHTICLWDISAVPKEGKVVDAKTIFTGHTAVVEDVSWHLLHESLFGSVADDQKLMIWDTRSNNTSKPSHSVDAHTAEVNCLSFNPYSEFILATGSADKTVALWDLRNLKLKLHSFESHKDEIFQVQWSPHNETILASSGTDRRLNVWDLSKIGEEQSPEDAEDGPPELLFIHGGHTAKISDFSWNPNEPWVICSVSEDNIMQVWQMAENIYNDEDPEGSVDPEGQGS

COc1cc(C)[nH]c(=O)c1CNC(=O)c1c(C)n([C@H](C)C2CCN(CC(F)(F)F)CC2)c2ccccc12 [CPI-1205, N-[(1,2-Dihydro-4-methoxy-6-methyl-2-oxo-3-pyridinyl)methyl]-2-methyl-1-[(1R)-1-[1-(2,2,2-trifluoroethyl)-4-piperidinyl]ethyl]-1H-indole-3-carboxamide]
mRNA expression of Insulin, Pdx1 and Ngn3 [1]: stimulated expression of one, two or all of Insulin, Pdx1 and Ngn3

CCN(c1cc(-c2ccc(CN3CCOCC3)cc2)cc(C(=O)NCc2c(C)cc(C)[nH]c2=O)c1C)C1CCOCC1 [EPZ-6438, N-[(1,2-Dihydro-4,6-dimethyl-2-oxo-3-pyridinyl)methyl]-5-[ethyl(tetrahydro-2H-pyran-4-yl)amino]-4-methyl-4′-(4-morpholinylmethyl)[1,1′-biphenyl]-3-carboxamide]
mRNA expression of Insulin, Pdx1 and Ngn3 [1]: stimulated expression of one, two or all of Insulin, Pdx1 and Ngn3 | H3K27me3 content of PDX1 [2]: reduced

CCCc1cc(C)[nH]c(=O)c1CNC(=O)c1cc(-c2ccnc(N3CCN(C)CC3)c2)cc2c1cnn2C(C)C [GSK343, N-[(1,2-Dihydro-6-methyl-2-oxo-4-propyl-3-pyridinyl)methyl]-1-(1-methylethyl)-6-[2-(4-methyl-1-piperazinyl)-4-pyridinyl]-1H-indazole-4-carboxamide]
mRNA expression of Insulin, Pdx1 and Ngn3 [1]: stimulated expression of one, two or all of Insulin, Pdx1 and Ngn3 | IC50 [3]: 4 nM

CC(C)[C@]12O[C@H]1[C@@H]1O[C@]13[C@]1(O[C@H]1C[C@H]1C4=C(CC[C@@]13C)C(=O)OC4)[C@@H]2O [Triptolide, (3bS,4aS,5aS,6R,6aR,7aS, 7bS,8aS,8bS)-3b,4,4a,6,6a,7a,7b,8b,9,10-Decahydro-6-hydroxy-8b-methyl-6a-(1-methylethyl)trisoxireno[4b,5: 6,7:8a,9]phenanthro[1,2-c]furan-1(3H)-one]
MAFA mRNA levels ([4]; 2-day point): increased in a statistically significant manner | CK19 expression ([4]; 2 days, EPZ6438 1 μM): statistically significant decreases | NGN3 mRNA levels ([4]; 2 days, EPZ6438 1 μM): significantly elevated | insulin transcripts, mature mRNA (INS) ([4]; 2 days, EPZ6438 1 μM): elevations | insulin transcripts, unprocessed heterogenous nuclear form (INS hnRNA) ([4]; 2 days, EPZ6438 1 μM): elevations | NGN3 mRNA levels ([4]; 7 days, EPZ6438 1 μM): Further increases | insulin transcripts, mature mRNA (INS) ([4]; 7 days, EPZ6438 1 μM): even further increases | insulin transcripts, unprocessed heterogenous nuclear form (INS hnRNA) ([4]; 7 days, EPZ6438 1 μM): even further increases | insulin concentration after incubation in high-glucose media (28 mM glucose, 1 hour) ([5]; 2-day stimulation (FIG. 13d), GSK126 10 μM, EPZ6438 1 μM, Triptolide 20 nM, not observed in DMSO control): significant elevations | Release of insulin (glucose stimulated) ([5]; 7 days stimulation (FIG. 13e)): maintained

C[C@H]1[C@H](C)CC[C@]2(C(=O)O)CC[C@]3(C)C(=CC[C@@H]4[C@@]5(C)CC[C@H](O)C(C)(C)[C@@H]5CC[C@]43C)[C@H]12 [Ursolic acid, 3β-Hydroxyurs-12-en-28-oic acid]
Insulin mRNA expression [6]: stimulated expression | Ngn3 mRNA expression [6]: stimulated expression | Pdx1 mRNA expression [6]: stimulated expression | mRNA expression of Insulin, Pdx1 and Ngn3 [1]: stimulated expression of one, two or all of Insulin, Pdx1 and Ngn3 | Insulin mRNA expression [7]: stimulated expression | Pdx1 mRNA expression [7]: stimulated expression
